Assay results from patent US5851782A, “Inhibitors of ceramidase” (Duke University, priority 1996, dated 1998).

How the values were obtained:
acid ceramidase = molecular target: T1, acid ceramidase (Homo sapiens, UniProt Q13510); test: Acid ceramidase activity in vitro at pH 4.5; type: biochemical; design: Ceramidase activity was determined from total homogenates of HL-60 cells; endogenous in cells; host or cells: HL-60 cells; settings: 50 μM
T1 sequence (Q13510 22-395): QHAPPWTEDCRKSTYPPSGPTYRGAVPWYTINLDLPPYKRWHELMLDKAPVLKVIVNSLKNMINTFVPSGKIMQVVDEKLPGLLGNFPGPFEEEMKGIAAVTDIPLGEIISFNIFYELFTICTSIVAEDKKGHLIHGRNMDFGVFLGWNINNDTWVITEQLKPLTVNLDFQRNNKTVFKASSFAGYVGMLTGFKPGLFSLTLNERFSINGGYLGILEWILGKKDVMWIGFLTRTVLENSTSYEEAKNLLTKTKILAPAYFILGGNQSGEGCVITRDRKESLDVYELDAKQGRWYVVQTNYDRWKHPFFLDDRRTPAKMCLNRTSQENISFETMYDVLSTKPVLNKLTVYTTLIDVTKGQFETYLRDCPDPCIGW
Method: Measurement of ceramidase activity in HL-60 cells. Ceramidase activity in HL-60 cells was measured by a modification of the method of Gatt and Yavin (Methods Enzymol. 14:139 (1969)). Cells were disrupted by sonication in 0.25M sucrose, 1 mM EDTA, and centrifuged at 10,000×g for 10 min after which the supernatant was centrifuged at 100,000×g for 60 min. Ten μl of 1 mM ceramide substrate ([^3 H]C16 -ceramide) was mixed with 100 μl of Triton X-100 (0.1%) in chloroform/methanol, 2:1, and 100 μl of 0.2% sodium cholate in chloroform/methanol, 2:1, after which the solvent was evaporated under N2 at 70° C. To this mixture, 30 μl of water was added and the tubes were heated for 5 s in an 80° C. water bath and then put on ice. Fifty μl of the appropriate buffer depending on desired pH was added followed by 20 μl of 50 mM MgCl2 and 100 μl of cell extract. In experiments using inhibitors, the desired inhibitor was added in ethanol either with the substrate or directly to the final solution. The reaction mixture was incubated for 1 h at 37° C. The ^3 H-fatty acid products of ceramidase were separated by the addition of 2 ml of Dole's solution (isopropyl alcohol, heptane, NaOH), 1.2 ml of heptane, and 1 ml of water. After vortexing and centrifugation, the upper phase was discarded and the lower phase was washed twice with heptane and the upper phase discarded each time. […]

[1] = system: ceramidase in HL-60 cells; test: Inhibition of L-e-MAPP metabolism in cells (ceramidase activity in cells); type: cell-based, human
Method: Metabolism studies. Lipids from cells treated with ^3 H-labeled compounds were extracted (Bligh & Dyer method), dried, resuspended in chloroform/methnol (10:1, v/v), and subjected to separation by TLC in chloroform/methanol (4:1, v/v). Spots containing radioactive compounds were scraped and radioactivity was measured using a scintillation counter.
Since D-e-MAPP inhibits ceramidase in cells, then it should also protect L-e-MAPP from metabolic degradation. Therefore, the effects of D-e-MAPP on metabolism of L-e-MAPP were examined. HL-60 cells were treated with tritium-labeled L-e-MAPP (3 μM), and the metabolism of L-e-MAPP was evaluated in the presence and absence of 3 μM D-e-MAPP. […] The effects of D-e-MAPP on metabolism of L-e-MAPP were dose dependent with most of the inhibition occurring at levels of D-e-MAPP of 1-3 μM (FIG. 8B).

neutral sphingomyelinase = test: Neutral sphingomyelinase activity in vitro; type: biochemical
From the text: (§1) In addition to ceramidase, inhibition of cerebroside synthase and sphingomyelin synthase or stimulation of sphingomyelinase or cerebrosidase could result in elevations in endogenous ceramide levels. Therefore, the effects of D- and L-e-MAPP were examined on these enzyme activities in vitro and in cells.

alkaline ceramidase = test: Alkaline ceramidase activity in vitro at pH 9.0; type: biochemical, human; settings: for use as substrate by alkaline ceramidase: 50 μM tritium-labeled substrate, HL-60 preparation
Method: Measurement of ceramidase activity in HL-60 cells. Ceramidase activity in HL-60 cells was measured by a modification of the method of Gatt and Yavin (Methods Enzymol. 14:139 (1969)). Cells were disrupted by sonication in 0.25M sucrose, 1 mM EDTA, and centrifuged at 10,000×g for 10 min after which the supernatant was centrifuged at 100,000×g for 60 min. Ten μl of 1 mM ceramide substrate ([^3 H]C16 -ceramide) was mixed with 100 μl of Triton X-100 (0.1%) in chloroform/methanol, 2:1, and 100 μl of 0.2% sodium cholate in chloroform/methanol, 2:1, after which the solvent was evaporated under N2 at 70° C. To this mixture, 30 μl of water was added and the tubes were heated for 5 s in an 80° C. water bath and then put on ice. Fifty μl of the appropriate buffer depending on desired pH was added followed by 20 μl of 50 mM MgCl2 and 100 μl of cell extract. In experiments using inhibitors, the desired inhibitor was added in ethanol either with the substrate or directly to the final solution. The reaction mixture was incubated for 1 h at 37° C. The ^3 H-fatty acid products of ceramidase were separated by the addition of 2 ml of Dole's solution (isopropyl alcohol, heptane, NaOH), 1.2 ml of heptane, and 1 ml of water. After vortexing and centrifugation, the upper phase was discarded and the lower phase was washed twice with heptane and the upper phase discarded each time. Finally, 1 ml of 1N H2 SO4, and 2 ml of heptane were added, and after vortexing and centrifugation the upper phase was transferred for counting by liquid scintillation.
In order to evaluate the interactions of D- and L-e-MAPP with ceramidase, in vitro studies we conducted using cytosolic and membrane fractions from HL-60 cells. Initially, ceramidase activity was examined for pH dependence using tritium-labeled C16 -ceramide as substrate. […] The alkaline ceramidase activity was very similar to that described in fibroblasts and cerebellar tissue (Sugita et al, Biochim. Biophys. Acta 398:125 (1975), Wertz and Downing, FEBS Lett. 268:110 (1990)). In initial studies, the ability of this ceramidase to utilize D-e- and L-e-MAPP as substrates was investigated. […] These studies corroborate the cellular metabolism studies showing that L-e-MAPP is a substrate for ceramidase in vitro and in cells.
Next, the ability of D- and L-e-MAPP to interfere with hydrolysis of C16 -ceramide by ceramidase at pH 4.5 and 9.0 was evaluated. Inhibition of ceramidase activity by D-e-MAPP was compared to that by N-oleoylethanolamine, a putative inhibitor of acid ceramidase (Sugita et al, Biochim. Biophys. Acta 398:125 (1975)). […] The effects of N-oleoylethanolamine are consistent with the previously reported Ki of 700 μM (Sugita et al, Biochim. Biophys. Acta 398:125 (1975)). […] In contrast, D-e-MAPP was a relatively poor inhibitor of acid ceramidase with less than 10% inhibition of acid ceramidase at 50 μM (FIG. 6C).

β-glucosidase = molecular target: T2, β-glucosidase (Homo sapiens, UniProt P04062); test: Glucocerebrosidase assay in vitro; type: biochemical
T2 sequence (P04062 40-536): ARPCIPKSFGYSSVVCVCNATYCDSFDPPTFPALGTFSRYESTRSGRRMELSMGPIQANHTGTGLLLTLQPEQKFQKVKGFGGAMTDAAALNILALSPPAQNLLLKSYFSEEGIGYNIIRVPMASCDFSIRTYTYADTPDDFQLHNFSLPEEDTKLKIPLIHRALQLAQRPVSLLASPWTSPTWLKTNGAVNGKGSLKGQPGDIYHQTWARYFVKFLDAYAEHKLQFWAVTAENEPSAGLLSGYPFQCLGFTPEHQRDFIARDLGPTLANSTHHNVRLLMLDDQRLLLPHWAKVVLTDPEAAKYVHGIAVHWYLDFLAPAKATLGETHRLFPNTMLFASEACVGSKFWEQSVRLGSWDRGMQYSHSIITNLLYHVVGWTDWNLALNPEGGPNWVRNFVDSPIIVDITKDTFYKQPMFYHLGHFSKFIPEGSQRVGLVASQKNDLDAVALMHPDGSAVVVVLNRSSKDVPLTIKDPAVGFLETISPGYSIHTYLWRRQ
Method: Glucocerebrosidase and glucocerebroside synthase assays. In vitro assays for gluccerebrosidase and for cerebroside synthase were performed as described (Abe et al, J. Biochem. (Tokyo) 11:191 (1992)).
as §1

SMILES	inhibition at 50 µM (acid ceramidase)	effect on breakdown of L-e-MAPP in cells ([1]; HL-60, 3 μM tritium-labeled L-e-MAPP, 3 μM D-e-MAPP)	levels at which most of the inhibition of L-e-MAPP metabolism occurs ([1]; HL-60, dose dependence)	effect on activity of neutral sphingomyelinase (neutral sphingomyelinase)	use as substrate by alkaline ceramidase (alkaline ceramidase)	inhibition of alkaline ceramidase in vitro (alkaline ceramidase; final concentration of 5 μM)	IC50 (alkaline ceramidase; pH 9.0, 50 μM C16-ceramide substrate)	effect on activity of β-glucosidase (β-glucosidase)
CCCCCCCCCCCCCC(=O)N[C@H](C)[C@@H](O)c1ccccc1 [D-e-MAPP, D-erythro-2-(N-myristolyamino)-1-phenyl-1-propanol]	< 10%	prevented the breakdown of L-e-MAPP	1 to 3 µM	neither D- nor L-e-MAPP modulated the activity of neutral or acidic sphingomyelinases	not substrate for the alkaline ceramidase	approximately 60%	1000 to 5000 nM	did not activate or modulate
CCCCCCCCCCCCCC(=O)N[C@@H](C)[C@H](O)c1ccccc1 [L-e-MAPP, L-erythro-2-(N-myristolyamino)-1-phenyl-1-propanol]	–	–	–	neither D- nor L-e-MAPP modulated the activity of neutral or acidic sphingomyelinases	readily hydrolyzed by ceramidase to a level equivalent to that seen with C16 -ceramide	–	–	did not activate or modulate
